Experimental data as given in patent US20240158446A1, “CYCLIC COMPOUND HAVING SELECTIVE INHIBITORY ACTION ON KRAS OVER HRAS AND NRAS” (CHUGAI SEIYAKU KABUSHIKI KAISHA, priority 2021, published 2024).
Where two headings read alike, the source gives them in different places.

How the values were obtained:
[1] = biological target: GDP-bound NRAS wild-type protein (Homo sapiens, UniProt P01111); assay: Binding to NRAS by surface plasmon resonance (SPR), Single Cycle Kinetics; conditions: for NRAS/KRAS (ratio of KD value for NRAS to KD value for KRAS): GDP-bound NRAS wild-type protein vs GDP-bound KRAS wild-type protein; for NRAS/KRAS (ratio of KD value with respect to GDP-bound NRAS wild-type protein to KD value with respect to KRAS): SPR KD ratio NRAS/KRAS, class symbols
Chain of GDP-bound NRAS wild-type protein (P01111 whole entry): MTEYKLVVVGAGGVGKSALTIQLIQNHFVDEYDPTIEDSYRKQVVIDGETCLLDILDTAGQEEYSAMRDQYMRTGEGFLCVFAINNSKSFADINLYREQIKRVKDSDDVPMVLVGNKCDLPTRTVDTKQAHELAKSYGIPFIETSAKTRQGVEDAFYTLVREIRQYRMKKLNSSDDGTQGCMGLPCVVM

[2] = biological target: GDP-bound KRAS wild-type protein (Homo sapiens, UniProt P01116); assay: Binding to KRAS by surface plasmon resonance (SPR), Single Cycle Kinetics; conditions: GDP-bound KRAS wild-type protein, read-out: KRAS KD
Chain of GDP-bound KRAS wild-type protein (P01116 whole entry): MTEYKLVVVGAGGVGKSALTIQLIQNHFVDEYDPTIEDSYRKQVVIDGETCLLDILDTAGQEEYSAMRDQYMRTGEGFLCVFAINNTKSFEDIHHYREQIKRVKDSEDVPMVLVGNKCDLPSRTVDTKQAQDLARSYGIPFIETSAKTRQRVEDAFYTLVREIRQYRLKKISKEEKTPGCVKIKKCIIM

[3] = tested on: human lung cancer strain NCI-H441;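 also: cell proliferation inhibition after four days measured by CellTiter-Glo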
[4] = biological target: GDP-bound HRAS wild-type protein (Homo sapiens, UniProt P01112); assay: Binding to HRAS by surface plasmon resonance (SPR), Single Cycle Kinetics; conditions: for HRAS/KRAS (ratio of KD value for HRAS to KD value for KRAS): GDP-bound HRAS wild-type protein vs GDP-bound KRAS wild-type protein; for HRAS/KRAS (ratio of KD value with respect to GDP-bound HRAS wild-type protein to KD value with respect to KRAS): SPR KD ratio HRAS/KRAS, class symbols
Chain of GDP-bound HRAS wild-type protein (P01112 whole entry): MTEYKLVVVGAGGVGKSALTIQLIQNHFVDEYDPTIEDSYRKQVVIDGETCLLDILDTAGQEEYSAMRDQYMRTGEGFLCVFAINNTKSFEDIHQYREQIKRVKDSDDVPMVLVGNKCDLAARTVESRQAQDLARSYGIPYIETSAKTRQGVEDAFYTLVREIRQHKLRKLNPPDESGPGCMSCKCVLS

[5] = SPR Single Cycle Kinetics, 1:1 binding model
[6] = SPR, Single Cycle Kinetics, 1:1 binding model

Compound	NRAS/KRAS (ratio of KD value for NRAS to KD value for KRAS) ([1]; SPR)	Kd ([2]; SPR, Single Cycle Kinetics)	IC50 [3]	HRAS/KRAS (ratio of KD value for HRAS to KD value for KRAS) ([4]; SPR)	NRAS/KRAS (ratio of KD value for NRAS to KD value for KRAS) ([1]; SPR, KD ratio class)	Kd [2, 6]	HRAS/KRAS (ratio of KD value for HRAS to KD value for KRAS) ([4]; SPR, KD ratio class)	further results
CCC(CC)[C@H]1C(=O)N(C)[C@H](C(=O)N(C)C)CC(=O)N(C)[C@@H](COC)C(=O)N[C@@H]([C@@H](C)CC)C(=O)N(C2CC2)CC(=O)N(C)[C@H]2C/C=C\CCN(C2=O)[C@@H](CC2CCCCC2)C(=O)N(C)CC(=O)N[C@@H](CCc2cc(F)c(C(F)(F)F)c(F)c2)C(=O)N2C[C@H](OC(C)C)C[C@H]2C(=O)NC2(CC(C)(C)C2)C(=O)N1C [PP2515]	A (a compound having 10 or more and less than 20 is denoted as A)	5.1 nM	384 nM	A (a compound having 10 or more and less than 20 is denoted as A)				
CCC[C@H]1C(=O)N[C@@H]([C@@H](C)CC)C(=O)N(C)CC(=O)N(C)[C@H]2C/C=C\CCN(C2=O)[C@@H](Cc2ccc(C)cc2)C(=O)N(C)CC(=O)N[C@@H](CCc2cc(F)c(C(F)(F)F)c(F)c2)C(=O)N2C[C@H](OCC)C[C@H]2C(=O)NC2(CC(C)(C)C2)C(=O)N(C)[C@@H](CC(C)(C)C)C(=O)N(C)[C@H](C(=O)N(C)C)CC(=O)N1C [PP2706]			2.3 nM					NRAS/KRAS (ratio of KD value with respect to GDP-bound NRAS wild-type protein to KD value with respect to KRAS) [1]: A (a compound having 10 or more and less than 20 is denoted as A); Kd [2, 5]: 0.076 nM; HRAS/KRAS (ratio of KD value with respect to GDP-bound HRAS wild-type protein to KD value with respect to KRAS) [4]: B (a compound having 3 or more and less than 10 is denoted as B)
CCO[C@@H]1C[C@H]2C(=O)NC3(CCC3)C(=O)N(C)[C@@H](C3CCCC3)C(=O)N(C)[C@H](C(=O)N(C)C)CC(=O)N(C)[C@@H](CC3CC3)C(=O)N[C@@H]([C@@H](C)CC)C(=O)N(C)CC(=O)N(C)[C@H]3C/C=C\CCN(C3=O)[C@@H](CC3CCC(F)(F)CC3)C(=O)N(C)CC(=O)N[C@@H](CCc3cc(F)c(C(F)(F)F)c(F)c3)C(=O)N2C1 [PP1447, (2S,8S,12R,14S,20S,23S,27S,30S,36S,38Z)-20-cyclopentyl-27-(cyclopropylmethyl)-2-[(4,4-difluorocyclohexyl)methyl]-8-[2-[3,5-difluoro-4-(trifluoromethyl)phenyl]ethyl]-12-ethoxy-N,N,4,19,22,26,32,35-octamethyl-30-[(1S)-1-methylpropyl]-3,6,9,15,18,21,25,28,31,34,42-undecaoxo-spiro[1,4,7,10,16,19,22,26,29,32,35-undecazatricyclo[34.5.1.0^10,14]dotetracont-38-ene-17,1′-cyclobutane]-23-carboxamide]			28.9 nM		A (a compound having 10 or more and less than 20 is denoted as A)	0.12 nM	A (a compound having 10 or more and less than 20 is denoted as A)	
CCO[C@@H]1C[C@H]2C(=O)NC3(CCC3)C(=O)N(C)[C@@H](C3CCCC3)C(=O)N(C)[C@H](C(=O)N(C)C)CC(=O)N(C)[C@@H](CC3CC3)C(=O)N[C@@H]([C@@H](C)CC)C(=O)N(C)CC(=O)N(C)[C@H]3C/C=C\CCN(C3=O)[C@@H](Cc3ccc(F)cc3)C(=O)N(C)CC(=O)N[C@@H](CCc3ccc(Cl)c(Cl)c3)C(=O)N2C1 [PP1478]			102 nM		A (a compound having 10 or more and less than 20 is denoted as A)	0.34 nM	A (a compound having 10 or more and less than 20 is denoted as A)	
CCC(CC)[C@H]1C(=O)N(C)[C@H](C(=O)N(C)C)CC(=O)N(C)[C@@H](COC)C(=O)N[C@@H]([C@@H](C)CC)C(=O)N(C2CC2)CC(=O)N(C)[C@H]2C/C=C\CCN(C2=O)[C@@H](CC2CCC(F)(F)CC2)C(=O)N(C)CC(=O)N[C@@H](CCc2cc(F)c(C(F)(F)F)c(F)c2)C(=O)N2C[C@H](OC3CCCC3)C[C@H]2C(=O)NC2(CC(C)(C)C2)C(=O)N1C [PP2627]			95.2 nM					NRAS/KRAS (ratio of KD value with respect to GDP-bound NRAS wild-type protein to KD value with respect to KRAS) [1]: A (a compound having 10 or more and less than 20 is denoted as A); Kd [2, 5]: 2.6 nM; HRAS/KRAS (ratio of KD value with respect to GDP-bound HRAS wild-type protein to KD value with respect to KRAS) [4]: A (a compound having 10 or more and less than 20 is denoted as A)
CC[C@H](C)[C@@H]1NC(=O)[C@@H]2CCCc3ccc(cc3)C[C@@H](C(=O)N(C)CC(=O)N[C@@H](CCc3ccc(C(F)(F)F)c(OC)c3)C(=O)N3CC4(CC4)C[C@H]3C(=O)NC3(CC(C)(C)C3)C(=O)N(C)[C@@H](C3CCCC3)C(=O)N(C)[C@H](C(=O)N(C)CC)CC(=O)N2C)N2CC/C=C\C[C@@H](C2=O)N(C)C(=O)CN(C)C1=O [PP3087]	A (a compound having 10 or more and less than 20 is denoted as A)	0.22 nM		B (a compound having 3 or more and less than 10 is denoted as B)				ratio of the KD value with respect to GDP-bound NRAS wild-type protein to the KD value with respect to KRAS ([1]; SPR, KD(NRAS)/KD(KRAS)): A (a compound having 10 or more and less than 20 is denoted as A); IC50 ([3]; read-out: NCI-H441 cell proliferation inhibitory activity, 50% proliferation inhibitory concentration (IC50 value), NCI-H441, four days, CellTiter-Glo): 6.9 nM; ratio of the KD value with respect to GDP-bound HRAS wild-type protein to the KD value with respect to KRAS ([4]; SPR, KD(HRAS)/KD(KRAS)): B (a compound having 3 or more and less than 10 is denoted as B)
CCO[C@@H]1C[C@H]2C(=O)NC3(CCC3)C(=O)N(C)[C@@H](C(CC)CC)C(=O)N(C)[C@H](C(=O)N(C)C)CC(=O)N(C)[C@@H](C)C(=O)N[C@@H]([C@@H](C)CC)C(=O)N(C)CC(=O)N(C)[C@H]3C/C=C\CCN(C3=O)[C@@H](Cc3ccc(C(F)(F)F)cc3)C(=O)N(C)CC(=O)N[C@@H](CCc3ccc4sccc4c3)C(=O)N2C1 [PP1222]			301 nM		A (a compound having 10 or more and less than 20 is denoted as A)	1.2 nM	A (a compound having 10 or more and less than 20 is denoted as A)	
CCCOC[C@H]1C(=O)N[C@@H]([C@@H](C)CC)C(=O)N(C)CC(=O)N(C)[C@H]2C/C=C\CCN(C2=O)[C@@H](Cc2ccc(C)cc2)C(=O)N(C)CC(=O)N[C@@H](CCc2ccc(C(F)(F)F)c(OC)c2)C(=O)N2C[C@H](OCC)C[C@H]2C(=O)NC2(CC(C)(C)C2)C(=O)N(C)[C@@H](C2CCCC2)C(=O)N(C)[C@H](C(=O)N(C)C)CC(=O)N1C [PP2449]	A (a compound having 10 or more and less than 20 is denoted as A)	0.061 nM	7.8 nM	A (a compound having 10 or more and less than 20 is denoted as A)				
CCO[C@@H]1C[C@H]2C(=O)NC3(CCCC3)C(=O)N(C)[C@@H](C3CCCC3)C(=O)N(C)[C@H](C(=O)N3CCOCC3)CC(=O)N(C)[C@@H](COC)C(=O)N[C@@H]([C@@H](C)CC)C(=O)NCC(=O)N(C)[C@H]3CCCCCN(C3=O)[C@@H](Cc3ccc(C(F)(F)F)cc3)C(=O)N(C)CC(=O)N[C@@H](CCc3cc(F)c(C(F)(F)F)c(F)c3)C(=O)N2C1 [PP0862]	B (a compound having 3 or more and less than 10 is denoted as B)	1.1 nM	81.1 nM	B (a compound having 3 or more and less than 10 is denoted as B)				
CCO[C@@H]1C[C@H]2C(=O)NC3(CCC3)C(=O)N(C)[C@@H](C3CCCC3)C(=O)N(C)[C@H](C(=O)N(C)C)CC(=O)N(C)[C@@H](CC3CC3)C(=O)N[C@@H]([C@@H](C)CC)C(=O)N(C)CC(=O)N(C)[C@H]3C/C=C\CCN(C3=O)[C@@H](Cc3ccc(C)cc3)C(=O)N(C)CC(=O)N[C@@H](CCc3cc(F)c(Cl)c(F)c3)C(=O)N2C1 [PP1484]			59.3 nM		A (a compound having 10 or more and less than 20 is denoted as A)	0.45 nM	A (a compound having 10 or more and less than 20 is denoted as A)	
CCCOC[C@H]1C(=O)N[C@@H]([C@@H](C)CC)C(=O)N(C)CC(=O)N(C)[C@H]2C/C=C\CCN(C2=O)[C@@H](Cc2ccc(C(F)(F)F)cc2)C(=O)N(C)CC(=O)N[C@@H](CCc2cc(F)c(C(F)(F)F)c(F)c2)C(=O)N2C[C@H](OCC)C[C@H]2C(=O)NC2(CC(C)(C)C2)C(=O)N(C)[C@@H](C2CCCC2)C(=O)N(C)[C@H](C(=O)N(C)C)CC(=O)N1C [PP1398, (2S,8S,12R,14S,20S,23S,27S,30S,36S,38Z)-20-cyclopentyl-8-[2-[3,5-difluoro-4-(trifluoromethyl)phenyl]ethyl]-12-ethoxy-N,N,3′,3′,4,19,22,26,32,35-decamethyl-30-[(1S)-1-methylpropyl]-3,6,9,15,18,21,25,28,31,34,42-undecaoxo-27-(propoxymethyl)-2-[[4-(trifluoromethyl)phenyl]methyl]spiro[1,4,7,10,16,19,22,26,29,32,35-undecazatricyclo[34.5.1.0^10,14]dotetracont-38-ene-17,1′-cyclobutane]-23-carboxamide]			2.3 nM		A (a compound having 10 or more and less than 20 is denoted as A)	0.032 nM	A (a compound having 10 or more and less than 20 is denoted as A)	
